The record followed here is US20220249680A1, “ANTIBODY-ALK5 INHIBITOR CONJUGATES AND THEIR USES” (Synthis Therapeutics, Inc., priority 2019, published 2022).

In assay [1] the test system is primary mouse CD4+ T cells. The experiment in a line: MTS proliferation assay, TGF-β1 treated primary mouse CD4+ T cells. Format: cell-based. On the procedure: Compounds A-D were tested to determine whether they could inhibit TGF-β signaling in primary mouse CD4^+ T cells.
Primary mouse CD4^+ T cells were isolated from the spleens of C57/B6 mice using the RoboSep™ cell isolation system (Stemcell Technologies). 0.5 μg/ml of hamster anti-mouse CD3e antibody (145-2C11; eBioscience) was coated onto a 96 well flat bottom plate overnight. 1×10^5 purified CD4^+ T cells were incubated with 1 μg/ml soluble hamster anti-mouse CD28 antibody (37.51, BD Biosciences), 1 nM TGF-β1 and 8-fold serial dilutions of Compounds A-D. After 72 hours, cell proliferation was measured using an MTS assay (Promega) in accordance with the manufacturer's instructions.

The target in the next assay is T1, ALK5 (Homo sapiens, UniProt P36897).
T1 sequence (P36897 34-503): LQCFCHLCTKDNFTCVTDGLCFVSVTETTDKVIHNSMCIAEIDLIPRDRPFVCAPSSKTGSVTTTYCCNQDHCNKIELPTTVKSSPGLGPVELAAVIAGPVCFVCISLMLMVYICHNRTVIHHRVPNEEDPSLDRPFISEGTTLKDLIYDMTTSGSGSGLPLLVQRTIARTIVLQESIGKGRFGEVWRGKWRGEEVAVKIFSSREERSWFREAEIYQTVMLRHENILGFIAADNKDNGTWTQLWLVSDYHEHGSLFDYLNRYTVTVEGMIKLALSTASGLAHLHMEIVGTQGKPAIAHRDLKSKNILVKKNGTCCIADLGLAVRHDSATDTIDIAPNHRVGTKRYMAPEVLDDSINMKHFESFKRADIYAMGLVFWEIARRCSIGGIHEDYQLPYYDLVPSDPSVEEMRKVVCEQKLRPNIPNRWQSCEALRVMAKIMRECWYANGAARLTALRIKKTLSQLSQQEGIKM
As to the kind of experiment: recombinant kinase assays (IC50 and Ki). To be noted: Compound C versus Compound N. The class given is biochemical. An excerpt: Compound N was compared to Compound C in a number of in vitro assays.

For assay [2], the system named is CMV responsive human PBMCs. As to the kind of experiment: Cytokine secretion assay (IFN-γ) with CMV antigens. Format: cell-based. The settings on record: 1 nM TGF-β, 1 ng/ml each agent, 48 hours. On the procedure: In a 96-well round bottom plate, 1.5×10^5 CMV responsive human PBMCs (Astarte Biologics) were cultured with 1.5 μg/ml CMV antigens (Astarte Biologics) in serum free medium for 48 hours alone or in the presence of (i) 1 nM TGF-β, (ii) 1 nM TGF-β and T3A #5 at 1 ng/ml, (iii) 1 nM TGF-β and pembrolizumab at 1 ng/ml, (iv) 1 nM TGF-β, T3A #5 at 1 ng/ml, and pembrolizumab at 1 ng/ml, or (v) 1 nM TGF-β and isotype control antibody (negative control). IFN-γ levels were measured in the supernatants using a R&D ELISA kit.

As to `CNCCOc1ccc(-c2cc(-c3c[nH]nc3-c3ccccn3)ccn2)cc1` [Compound B, N-methyl-2-(4-{4-[3-(pyridin-2-yl)-1H-pyrazol-4-yl]pyridin-2-yl}phenoxy)ethan-1-amine], the “reversal of TGFβ-mediated inhibition of T cell proliferation” value in assay [1] (in words) was “reversed TGFβ-mediated inhibition of T cell proliferation”.
Consider `CCNC(=O)c1ccc2c(c1)NC(=O)/C2=C(\Nc1ccc(N(CCNC)S(C)(=O)=O)cc1)c1ccccc1` [Compound D, (Z)-N-ethyl-3-(((4-(N-(2-(methylamino)ethyl)methylsulfonamido)phenyl)amino)(phenyl)methylene)-2-oxoindoline-6-carboxamide], for which the “Experiment 1 IC50 (nM)” value in assay [1] (1 nM TGF-β1, 72 hours) is on record as “Value not obtained”. Besides, the “Experiment 2 IC50 (nM)” value in assay [1] (Experiment 2, 1 nM TGF-β1, 72 hours) was “Value not obtained”. Moreover, in assay [1] (two different experiments, in words), the “IC50 value in mouse CD4+ T cells” value is on record as “not obtained”.
As to `CNCCOc1ccc(-c2cc(-c3c[nH]nc3-c3cccc(C)n3)ccn2)cc1` [Compound C, N-methyl-2-(4-{4-[3-(6-methylpyridin-2-yl)-1H-pyrazol-4-yl]pyridin-2-yl}phenoxy)ethan-1-amine], the “reversal of TGFβ-mediated inhibition of T cell proliferation” value in assay [1] (in words) is on record as “reversed TGFβ-mediated inhibition of T cell proliferation”. For the same compound, the “potency relative to Compound N in the recombinant assays” value at ALK5 is given as 10 fold.
Consider `Cc1cccc(-c2nc(N)sc2-c2ccc3ncccc3n2)n1` [Compound A, 4-(6-methylpyridin-2-yl)-5-(1,5-naphthyridin-2-yl)-1,3-thiazol-2-amine], for which the “Experiment 1 IC50 (nM)” value in assay [1] (1 nM TGF-β1, 72 hours) is reported as “Value not obtained”. Besides, the “reversal of TGFβ-mediated inhibition of T cell proliferation” value in assay [1] (in words) is given as “did not show consistent effects”.
“pembrolizumab: T cell checkpoint inhibitor (anti-PD1, Merck)”: the IFN-γ levels entry in assay [2] is “increase IFN-γ levels”.
